What was measured:
Format in all cases: cell-based, human
[1] = test system: iPS cells (836B1); test: Immunostaining for CoupTF1 and Ctip2 on day 46, suspension culture with various WNT inhibitors (Example 4); conditions: 50 nM C59, 100 nM LGK-974, 1 μM ICG-001, day 46; C59 and LGK-974 compared with each other
Protocol: On the day before induction of differentiation, in order to separate the iPS cells (836B1), which had been cultured in a culture medium to which 10 μM Y-27632 had been added, from the SNL feeder cells, the SNL cells were removed with CTK and the remaining cells were then dissociated using Accumax. The cells were transferred on a 96-well plate (Lipidure-coat 96-well plate) in an amount of 9×10^3 cells per well. Thereafter, the cells were subjected to a suspension culture in DMEM/F12 comprising 50 μM Y-27632, 10 μM SB43152, 10 ng/ml bFGF, various types of Wnt inhibitors (50 nM C59, 100 nM LGK-974, or 1 μM ICG-001 (Cellagen Technology)), 100 nM LDN193189, 10% KSR, 0.1 mM MEM non-essential amino acid, 0.1 mM 2-mercaptoethanol, and 2 mM L-Gln (initiation of differentiation induction, day 0). […] Three days later, the medium was exchanged with DMEM/F12 comprising various types of WNT inhibitors (C59, LGK-974, or ICG-001), 100 nM LDN193189, 10% KSR, 0.1 mM MEM non-essential amino acid, 0.1 mM 2-mercaptoethanol, and 2 mM L-Gln (day 6). Thereafter, the medium was exchanged with a fresh one of the same type every 3 days, and the culture was carried out for 18 days after the initiation of differentiation induction (day 18).
A half of the medium on day 18 was removed by aspiration, and thereafter, Neurobasal, to which B27, 2 mM L-Gln, and 10 units/ml penicillin and streptomycin had been added, was added in the same amount as the removed medium to the remaining medium. Likewise, a half amount of the medium was exchanged on day 21. On day 24, the cells were transferred on a petri dish, and thereafter, a half of the medium was exchanged every 3 or 4 days. On day 46, the obtained cells were immunostained using antibodies against CoupTF1 and Ctip2. […] From the aforementioned results, it was confirmed that nerve cells existing in the desired corticocerebral motor area can be induced even by utilizing the WNT inhibitor LGK-974 having a similar action to C59.

[2] = test system: ES cells or the iPS cells; test: Immunostaining for CoupTF1 and Ctip2 after 46 days of cerebral cortex differentiation
Excerpt: (§1) Human ES cells (KhES-1) were obtained from Institute for Frontier Medical Sciences, Kyoto University (Suemori H, et al. Biochem Biophys Res Commun. 345: 926-32, 2006). The human iPS cells 404C2 are cells obtained by introducing Oct3/4, Sox2, Klf4, L-MYC, LIN28 and p53shRNA into human fibroblasts, using an episomal vector, and these cells were obtained from Professor Yamanaka et al. in Kyoto University (Okita, et al, Nat Methods. 8: 409-412, 2011). The human iPS cells 836B1 are cells obtained by introducing Oct3/4, Sox2, Klf4, L-MYC, LIN28, GLIS1 and p53shRNA into human fibroblasts, using an episomal vector, and these cells were obtained from Professor Yamanaka et al. in Kyoto University. The ES cells and the iPS cells were cultured on SNL cells (Takahashi K, et al, Cell. 131: 861-872, 2007).
On the day before induction of differentiation, in order to separate the ES cells or the iPS cells, which had been cultured in a culture medium to which 10 μM Y-27632 (WAKO) had been added, from the SNL feeder cells, the SNL cells were removed with CTK and the remaining cells were then dissociated using Accumax (ICT). The cells were transferred on a 96-well plate (Lipidure-coat 96-well plate (NOF Corporation)) in an amount of 9×10^3 cells per well. Thereafter, the cells were subjected to a suspension culture in DMEM/F12 (WAKO) comprising 50 μM Y-27632 (WAKO), 10 μM SB43152 (Sigma), 10 ng/ml bFGF (Invitrogen), various types of Wnt inhibitors (DKK1 (R & D, 500 ng/ml), C59 (Cellagen Technology, 2-10 nM), XAV (Stemgent, 500 nM-2 μM) or IWP4 (Stemgent, 500 nM-2.5 μM)), LDN193189 (Stemgent), KSR (Invitrogen), 0.1 mM MEM non-essential amino acid (Invitrogen), 0.1 mM 2-mercaptoethanol (WAKO), and 2 mM L-Gln (Invitrogen) (initiation of differentiation induction, day 0). […]
The concentration of LDN193189 used in the above-described induction method was examined. […] Furthermore, the expression levels of the CoupTF1 and Sfrp1 genes were measured according to a qPCR method (FIG. 5C). […]

[3] = test system: ES cells or the iPS cells; test: qPCR of marker gene expression in cells differentiated with added inhibitors
Excerpt: as §1
On the day before induction of differentiation, in order to separate the ES cells or the iPS cells, which had been cultured in a culture medium to which 10 μM Y-27632 (WAKO) had been added, from the SNL feeder cells, the SNL cells were removed with CTK and the remaining cells were then dissociated using Accumax (ICT). The cells were transferred on a 96-well plate (Lipidure-coat 96-well plate (NOF Corporation)) in an amount of 9×10^3 cells per well. Thereafter, the cells were subjected to a suspension culture in DMEM/F12 (WAKO) comprising 50 μM Y-27632 (WAKO), 10 μM SB43152 (Sigma), 10 ng/ml bFGF (Invitrogen), various types of Wnt inhibitors (DKK1 (R & D, 500 ng/ml), C59 (Cellagen Technology, 2-10 nM), XAV (Stemgent, 500 nM-2 μM) or IWP4 (Stemgent, 500 nM-2.5 μM)), LDN193189 (Stemgent), KSR (Invitrogen), 0.1 mM MEM non-essential amino acid (Invitrogen), 0.1 mM 2-mercaptoethanol (WAKO), and 2 mM L-Gln (Invitrogen) (initiation of differentiation induction, day 0). […] Three days later, the medium was exchanged with DMEM/F12 (WAKO) comprising various types of Wnt inhibitors (DKK1, C59, XAV or IWP4 (Stemgent)), LDN193189 (Stemgent), KSR (Invitrogen), 0.1 mM MEM non-essential amino acid (Invitrogen), 0.1 mM 2-mercaptoethanol (WAKO), and 2 mM L-Gln (Invitrogen) (day 6). Thereafter, the medium was exchanged with a fresh one of the same type every 3 days, and the culture was carried out for 18 days after the initiation of differentiation induction (day 18).
The obtained cell mass was transferred on a dish (24-well plate (BD)) coated with 50 μg/ml ornithine (Sigma), 5 μg/ml laminin (Sigma) and 5 μg/ml fibronectin (BD Bioscience Pharmingen), and the culture was continued in Neurobasal (Invitrogen), to which B27 (Invitrogen), 2 mM L-Gln, and 10 units/ml penicillin and streptomycin (Invitrogen) had been added. The culture was carried out for, at maximum, 46 days after the initiation of differentiation induction. It is to be noted that the medium was exchanged with a fresh one every 2 or 3 days.
In the above-described induction method, 500 ng/ml DKK1, 2 nM C59, 500 nM XAV or 500 nM IWP4 was added as a Wnt inhibitor to the cells, and the obtained mixture was then cultured for 18 days. Thereafter, the expression levels of Six3 (forebrain marker), Sox1 (neuroectodermal marker), Foxg1 (cerebral cortex-forming factor), Lhx2 (cerebral cortex-forming factor), Emx2 (forebrain back portion marker), CoupTF1 (forebrain back portion marker) and Pax6 (forebrain front portion marker) genes in the cultured cells were measured by a qPCR method (FIG. 2).
The concentration of C59 used as a Wnt inhibitor in the above-described induction method was examined. Specifically, without using C59, or using 2.5 nM, 10 nM and 1 μM C59, the cells were cultured for 18 days. […] The obtained spheres were subjected to immunostaining of using an antibody against Pax6. […] Furthermore, the expression levels of the Foxg1, Lhx2, Emx2 and CoupTF1 genes in the obtained spheres were measured according to a qPCR method (FIG. 4B). As a result, the expression level of CoupTF1 was low and the expression levels of Lhx2 and Foxg1 were high in the case of using 10 nM C59. […]

[4] = test system: ES cells or the iPS cells; test: Cell death / cytotoxicity in spheres on the 18th day of the culture; conditions: 2 μM LDN193189, 18th day of the culture
Protocol: On the day before induction of differentiation, in order to separate the ES cells or the iPS cells, which had been cultured in a culture medium to which 10 μM Y-27632 (WAKO) had been added, from the SNL feeder cells, the SNL cells were removed with CTK and the remaining cells were then dissociated using Accumax (ICT). The cells were transferred on a 96-well plate (Lipidure-coat 96-well plate (NOF Corporation)) in an amount of 9×10^3 cells per well. Thereafter, the cells were subjected to a suspension culture in DMEM/F12 (WAKO) comprising 50 μM Y-27632 (WAKO), 10 μM SB43152 (Sigma), 10 ng/ml bFGF (Invitrogen), various types of Wnt inhibitors (DKK1 (R & D, 500 ng/ml), C59 (Cellagen Technology, 2-10 nM), XAV (Stemgent, 500 nM-2 μM) or IWP4 (Stemgent, 500 nM-2.5 μM)), LDN193189 (Stemgent), KSR (Invitrogen), 0.1 mM MEM non-essential amino acid (Invitrogen), 0.1 mM 2-mercaptoethanol (WAKO), and 2 mM L-Gln (Invitrogen) (initiation of differentiation induction, day 0). […] Three days later, the medium was exchanged with DMEM/F12 (WAKO) comprising various types of Wnt inhibitors (DKK1, C59, XAV or IWP4 (Stemgent)), LDN193189 (Stemgent), KSR (Invitrogen), 0.1 mM MEM non-essential amino acid (Invitrogen), 0.1 mM 2-mercaptoethanol (WAKO), and 2 mM L-Gln (Invitrogen) (day 6). […]

[5] = 0.1 μM, 0.5 μM and 2 μM LDN193189, 46 days, qPCR, in a concentration-dependent manner
[6] = 500 ng/ml DKK1 as Wnt inhibitor, cultured for 18 days, qPCR

O=C1[C@H](Cc2ccc(O)cc2)N2C(=O)CCN(C(=O)NCc3ccccc3)[C@H]2CN1Cc1cccc2ccccc12 [ICG-001]
efficiency of inducing CoupTF1-negative Ctip2-positive cells [1]: significantly low

SB431542
CoupTF1-negative Ctip2-positive cells ([2]; 10 μM SB43152 as TGFβ inhibitor, 46 days): obtained

c1ccc2c(-c3cnn4cc(-c5ccc(N6CCNCC6)cc5)cnc34)ccnc2c1 [LDN193189, 4-(6-(4-(piperazin-1-yl)phenyl)pyrazolo [1,5-a]pyrimidin-3-yl)quinoline]
expression level of CoupTF1 [3, 5]: low
expression level of Sfrp1 [3, 5]: high
CoupTF1-negative Ctip2-positive cells ([2]; 0.1 μM, 0.5 μM and 2 μM LDN193189, 46 days): obtained in a concentration-dependent manner
cell death in spheres [4]: cell death was often found
cytotoxicity [4]: strongly appeared

Cc1cc(-c2ncc(CC(=O)Nc3ccc(-c4cnccn4)cn3)cc2C)ccn1 [LGK-974]
efficiency of inducing CoupTF1-negative Ctip2-positive cells [1]: not found a large difference

B1: DKK1: DKK1 protein, Wnt inhibitor (human NCBI Accession No. NM_012242), R & D (protein, UniProt O94907 32-266, looked up)
Dickkopf-related protein 1: TLNSVLNSNAIKNLPPPLGGAAGHPGSAVSAAPGILYPGGNKYQTIDNYQPYPCAEDEECGTDEYCASPTRGGDAGVQICLACRKRRKRCMRHAMCCPGNYCKNGICVSSDQNHFRGEIEETITESFGNDHSTLDGYSRRTTLSSKMYHTKGQEGSVCLRSSDCASGLCCARHFWSKICKPVLKEGQVCTKHRRKGSHGLEIFQRCYCGEGLSCRIQKDHHQASNSSRLHTCQRH
cells in the back portion of the forebrain induced ([3]; 500 ng/ml DKK1 as Wnt inhibitor, cultured for 18 days): a large number
expression level of CoupTF1 (forebrain back portion marker) [3, 6]: high
expression level of Emx2 (forebrain back portion marker) [3, 6]: high
